Values joined by “and” are separate entries in the source; they are usually repeats but may differ in a detail not shown here. Equal values may be shown once. “Also recorded” adds a separate entry of the source. Where a name gives a salt, the structure may show the parent alone. Read-outs that look alike come from different tables or passages of the source.
Legend:
[1] = test system: K562 cells; test: Multidrug resistance reversal assay (MTT) with DOX, sensitive parental line; format: cell-based, human; settings: for Effect on DOX sensitivity in K562: compound at highest non-toxic concentration (Table 1)
Description: (§1) Briefly, 5 × 10^4 Lucena 1 cells per well were seeded in 96-well plates containing RPMI-1640 medium in the presence of DOX alone or in combination with the tested compounds dissolved in ethanol or acetonitrile as appropriate. DOX was added to reach final concentrations of 0.05–431 μM. The compounds were assayed at the highest non-toxic concentration observed in both cell lines (cytotoxicity ≤ 20%, Cytotoxicity (%) = [1-(Optical density treatment-Optical density DMSO)/(Optical density control-Optical density DMSO)] x 100, determined by MTT proliferation assay (Joray et al., [2015]); maximum concentration tested 40 μg mL^−1). Following the primary screening, compounds 14 and 16 (dissolved in ethanol) were tested at serial dilutions. […] Subsequently, the supernatants were removed and replaced with 100 μL DMSO to solubilize the resulting purple formazan crystals produced from metabolically viable cells. Absorbance was measured with an iMark micro-plate reader (Bio-Rad, USA) at 595 nm.
(§2) The same reversal assay was performed in K562 cells, in order to discard a decrease in the IC50 of DOX due to effects other than P-gp inhibition. The reversal fold (RF) values for the tested compounds, which indicate their capacity to reduce resistance to DOX, were calculated by dividing the IC50 of DOX alone by the IC50 of DOX in the presence of the tested compounds (Xu et al., [2014]).

[2] = test system: K562 cells; test: Reversal assay (MTT) with VLB, sensitive parental line; format: cell-based, human
[3] = test system: K562 cells; test: Rhodamine 123 efflux assay (flow cytometry), K562; format: cell-based, human; settings: 14 at 112 μM
Description: Rho 123, a P-gp fluorescent substrate, is frequently employed as an indicator of P-gp activity and it was therefore used in an additional efflux study. […] Subsequently, cells were incubated with 500 ng mL^−1 of Rho 123 for 30 min. […] After washing twice with cold PBS, the amount of Rho 123 remaining in 10,000 individual cells after the efflux period was quantified by FACScan flow cytometry. Excitation was performed with a laser operating at 488 nm and the emitted fluorescence was collected through a 530/30 nm pass filter.

[4] = target: T1, P-gp (Homo sapiens, UniProt P08183); settings: Lucena 1; for % of inhibition related to verapamil (DOX accumulation): 112 μM
T1 sequence (P08183 whole entry): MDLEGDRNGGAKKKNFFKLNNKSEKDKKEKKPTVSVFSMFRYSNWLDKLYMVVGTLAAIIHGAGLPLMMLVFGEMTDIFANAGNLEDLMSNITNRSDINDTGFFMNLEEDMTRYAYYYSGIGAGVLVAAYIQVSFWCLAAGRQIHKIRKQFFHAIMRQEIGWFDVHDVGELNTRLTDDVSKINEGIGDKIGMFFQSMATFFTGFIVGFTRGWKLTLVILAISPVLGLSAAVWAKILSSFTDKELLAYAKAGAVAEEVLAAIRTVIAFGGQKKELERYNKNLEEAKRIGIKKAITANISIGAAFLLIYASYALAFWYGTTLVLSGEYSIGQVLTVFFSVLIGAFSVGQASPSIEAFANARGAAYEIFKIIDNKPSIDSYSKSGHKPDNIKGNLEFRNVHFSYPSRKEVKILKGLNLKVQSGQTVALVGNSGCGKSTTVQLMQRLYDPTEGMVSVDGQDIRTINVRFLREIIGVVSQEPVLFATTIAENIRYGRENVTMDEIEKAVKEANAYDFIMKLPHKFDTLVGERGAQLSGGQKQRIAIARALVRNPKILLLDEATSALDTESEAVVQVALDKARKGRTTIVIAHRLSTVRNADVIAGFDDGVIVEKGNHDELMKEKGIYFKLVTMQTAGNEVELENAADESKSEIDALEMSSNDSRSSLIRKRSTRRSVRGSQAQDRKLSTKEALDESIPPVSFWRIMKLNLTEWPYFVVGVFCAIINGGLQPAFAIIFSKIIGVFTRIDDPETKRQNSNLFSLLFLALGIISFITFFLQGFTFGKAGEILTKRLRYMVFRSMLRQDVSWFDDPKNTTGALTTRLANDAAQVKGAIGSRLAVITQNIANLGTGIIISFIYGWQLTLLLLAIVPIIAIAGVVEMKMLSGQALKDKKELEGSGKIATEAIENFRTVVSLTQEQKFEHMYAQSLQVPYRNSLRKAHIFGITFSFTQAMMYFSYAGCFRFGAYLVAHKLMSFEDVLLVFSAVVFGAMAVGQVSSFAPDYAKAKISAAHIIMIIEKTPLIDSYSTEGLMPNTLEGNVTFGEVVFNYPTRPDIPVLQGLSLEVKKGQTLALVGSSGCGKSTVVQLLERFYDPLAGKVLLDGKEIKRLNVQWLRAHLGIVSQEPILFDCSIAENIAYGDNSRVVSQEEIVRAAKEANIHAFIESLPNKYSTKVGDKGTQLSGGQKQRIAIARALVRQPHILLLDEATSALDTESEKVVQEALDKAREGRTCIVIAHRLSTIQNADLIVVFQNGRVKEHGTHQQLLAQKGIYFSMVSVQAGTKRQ

[5] = target: T1, P-gp; test: Doxorubicin efflux assay (flow cytometry); format: cell-based; set-up: Lucena 1 was chosen as a well-characterized resistant cell line in which P-gp overexpression is the exclusive mechanism of acquired resistance; endogenous in cells; host or cells: Lucena 1 (drug-selected, P-gp overexpressing) and parental K562 human CML cells; settings: Lucena 1
T1 sequence (P08183 whole entry): as above
Description: […]. […] After washing, cells were incubated for 30 min with 14. […] Cells were then washed with ice-cold PBS and the intracellular DOX-associated MFI of 50,000 individual cells was determined by flow cytometry as previously described.

[6] = test system: P-gp; test: Surface expression of P-gp (FITC anti-human P-gp, flow cytometry), K562; format: cell-based; settings: 14 at 112 μM, 24 and 48 h
Description: (§3) To determine the effect of 14 on P-gp surface expression, Lucena 1 or K562 cells at a density of 5 × 10^4 cells mL^−1 were incubated in the presence of 14, dissolved in ethanol at 112 μM (maximum non-cytotoxic concentration, in order to ensure the presence of the effect) or 1% ethanol (control) for 24 and 48 h. Then, cells were washed with cold PBS and labeled for 30 min at 4°C in the dark with FITC-conjugated mouse anti-human P-gp antibody, which binds to an external epitope of P-gp, according to the manufacturer's instructions. Finally, cells were washed and suspended with ice-cold PBS and fluorescence intensity was determined in 10,000 individual cells by FACScan flow cytometry. FITC fluorescence was measured at an excitation wavelength of 488 nm and emitted light was collected with a 530/30 nm bandpass filter.

[7] = target: T1, P-gp; test: Rhodamine 123 efflux assay (flow cytometry); format: cell-based; set-up: Lucena 1 was chosen as a well-characterized resistant cell line in which P-gp overexpression is the exclusive mechanism of acquired resistance; endogenous in cells; host or cells: Lucena 1 (drug-selected, P-gp overexpressing) and parental K562 human CML cells; settings: Lucena 1; 14 at 112 μM; 30 min efflux
[8] = test system: K562 cells; test: Doxorubicin efflux assay (flow cytometry), K562; format: cell-based, human; settings: 14 at 112 μM, verapamil 30 μM
Description: Cells were then washed with ice-cold PBS and the intracellular DOX-associated MFI of 50,000 individual cells was determined by flow cytometry as previously described.

[9] = test system: Lucena 1 cells; test: Multidrug resistance reversal assay (MTT) with DOX; format: cell-based, human; settings: for Effect on DOX toxicity in Lucena 1: compound at highest non-toxic concentration (Table 1)
Description: as §1, §2

[10] = test system: K562 cells; test: Doxorubicin intracellular accumulation assay (flow cytometry), K562; format: cell-based, human; settings: up to the maximum concentration evaluated
Source text: […]. […] Viability controls were included in all the experiments.

[11] = test system: P-gp; test: Surface expression of P-gp (FITC anti-human P-gp, flow cytometry), Lucena 1; format: cell-based; settings: 14 at 112 μM, 48 h
Description: as §3

[12] = test system: Lucena 1 cells; test: Reversal assay (MTT) with VLB; format: cell-based, human
Description: Subsequently, the supernatants were removed and replaced with 100 μL DMSO to solubilize the resulting purple formazan crystals produced from metabolically viable cells.
The same reversal assay was performed in K562 cells, in order to discard a decrease in the IC50 of DOX due to effects other than P-gp inhibition.

[13] = target: T1, P-gp; test: P-gp ATPase activity ([…] ATPase assay kit, Sf9 membranes); format: biochemical; set-up: host or cells: Spodoptera frugiperda Sf9 cells (membrane preparation); settings: for Maximum stimulation of P-gp-ATPase activity: activation assay, at 66.7 μM, relative to maximum activation by verapamil
Description: The ATPase reaction was subsequently stopped and the inorganic phosphate (Pi) produced was measured colorimetrically at 630 nm.
All experiments were performed in the absence or presence of 1.2 mM of sodium orthovanadate, an ABC transporter-related ATPase inhibitor, in order to measure the vanadate-sensitive portion of the total ATPase activity. […] Membranes from Sf9 cells expressing defective P-gp were used as controls.

[14] = test system: P-gp; set-up: method as in Tamaki et al., 2008; settings: applied at 50 and 100 μM; ref Tamaki et al., 2008; cited from earlier work
[15] = test system: KB-C2 cells overexpressing P-gp; set-up: method as in Nabekura et al., 2008; settings: ref Nabekura et al., 2008; cited from earlier work
[16] = 14 at 112 μM, verapamil as reference

Molecule: O=C(/C=C/c1ccccc1)c1ccc(O)cc1O [Compound 6, 2′,4′-dihydroxychalcone]
- Effect on DOX sensitivity in K562 [1]: caused a decrease in DOX IC50

Molecule: (±)-pinoresinol [Compound 14]
- Reversal fold (RF) to VLB [2, 16]: 9 and 9.63
- Rho 123-associated MFI in K562 [3]: did not induce any increase
- % of inhibition related to verapamil (DOX accumulation) ([4]; 0 h pre-incubation): 60%
- % of inhibition related to verapamil (DOX accumulation) ([4]; 0.5 h pre-incubation): 73%
- % of inhibition related to verapamil (DOX accumulation) ([4]; 1 h pre-incubation, verapamil 30 μM = maximum inhibition): 79%
- % of inhibition related to verapamil (DOX accumulation) ([4]; 48 h pre-incubation): 55%
- % inhibition with respect to verapamil (DOX accumulation) ([4]; 14 at 56 μM (MEC)): 80%
- Time course of DOX accumulation ([4]; 14 at 112 μM, at 20 min, compared with MFI in K562): fully restored the presence of DOX within Lucena 1 cells
- Minimum effective concentration (MEC) in the DOX accumulation assay ([4]; 1 h pre-incubation, 5 μM DOX 1 h): 56 µM
- Type of P-gp inhibition (Lineweaver-Burk double reciprocal plot of DOX retention) ([4]; 1 h with 14, then 1 h DOX): competitive inhibitor
- Increase in DOX-associated MFI vs ethanol control ([4]; 48 h pre-incubation, 14 at 112 μM, verapamil 30 μM, 5 μM DOX 1 h): 1.4 fold
- Increase in DOX accumulation (MFI) vs ethanol control ([4]; no pre-incubation (0 h), 14 at 112 μM, verapamil 30 μM, 5 μM DOX 1 h): 1.3 fold
- Increase in DOX-associated MFI (retention) vs control in efflux assay ([5]; 14 at 112 μM, 30 min in DOX-free medium): 1.8 fold
- Minimum effective concentration (MEC) in the DOX efflux assay ([5]; 30 min efflux): 56 µM
- P-gp presence in the outer membrane [6]: No suppression of P-gp presence
- Effect on DOX sensitivity in K562 [1]: did not increase DOX sensitivity
- Enhancement of intracellular Rho 123 intensity in efflux assay [7]: 1.5 fold
- Effect on DOX efflux in K562 [8]: Neither 14 nor verapamil showed any significant effect
- Minimum effective concentration (MEC) in the reversal assay (potentiation of DOX toxicity from) ([9]; Lucena 1, DOX): 7 µM
- RF Lucena 1 ([9]; compound at 28 μM (serial dilution), DOX): 3.4
- DOX accumulation in K562 [10]: No such increase in MFI
- P-gp expression at the membrane surface vs control [11]: less P-gp at the Lucena 1 cell membrane; also recorded: lower
- Reversal fold (RF) to VLB [12, 16]: 60 and 60.20
- Maximum stimulation of P-gp-ATPase activity [13]: 29.49 ± 4.55%
- Maximum stimulation of P-gp-ATPase activity ([13]; listed as pinoresinol): 29%
- Effect on ATPase activity of control membranes ([13]; membranes from Sf9 cells expressing defective P-gp, up to 600 μM): no effect

Molecule: CC[C@]1(O)C[C@@H]2CN(CCc3c([nH]c4ccccc34)[C@@](C(=O)OC)(c3cc4c(cc3OC)N(C)[C@H]3[C@@](O)(C(=O)OC)[C@H](OC(C)=O)[C@]5(CC)C=CCN6CC[C@]43[C@@H]65)C2)C1 [VLB, vinblastine sulfate, reference compound]
- IC50 ([2]; Homo sapiens, VLB alone): 240 nM
- IC50 ([12]; Homo sapiens, VLB alone): 2490 nM

Molecule: (+)-pinoresinol [14 (+)-pinoresinol]
- Intracellular accumulation of calcein-AM [14]: increased the intracellular accumulation of calcein-AM

Molecule: COc1ccc(CCN(C)CCCC(C#N)(c2ccc(OC)c(OC)c2)C(C)C)cc1OC (stereo not drawn) [Verapamil, Verapamil hydrochloride, reference compound]
- DOX accumulation in K562 [10]: No such increase in MFI

Molecule: (-)-sesamin
- Concentration from which accumulation of daunorubicin increased [15]: 50 µM

Molecule: CC1(C)C=Cc2c(cc3c(c2O)C(=O)CC(c2ccc(O)cc2O)O3)O1 (stereo not drawn) [Compound 9, dalenin]
- Effect on DOX sensitivity in K562 [1]: caused a decrease in DOX IC50

Molecule: O=c1c(O)c(-c2ccc(O)c(O)c2)oc2cc(O)cc(O)c12 [Compound 11, quercetin]
- Effect on DOX toxicity in Lucena 1 [9]: decreased DOX sensitivity

Molecule: COc1cccc2c1C(=O)c1c(O)c3c(c(O)c1C2=O)C[C@@](O)(C(=O)CO)C[C@@H]3O[C@H]1C[C@H](N)[C@H](O)[C@H](C)O1 [DOX, Doxorubicin hydrochloride, reference compound]
- IC50 ([1]; Homo sapiens, K562, MTT 48 h, 95% confidence limits in brackets, read-out: IC50 of DOX alone): 1160 nM
- IC50 ([9]; Homo sapiens, Lucena 1, MTT 48 h, 95% confidence limits in brackets, read-out: IC50 of DOX alone): 40.8 µM
- Resistance of Lucena 1 to DOX relative to K562 ([9]; ratio of DOX IC50 values): 35 fold

Molecule: O=C1C[C@@H](c2ccc(O)cc2)Oc2cc(O)cc(O)c21 [Compound 8, naringenin]
- Effect on DOX toxicity in Lucena 1 [9]: did not cause any effect in DOX toxicity

Molecule: O=c1cc(-c2ccc(O)cc2)oc2cc(O)cc(O)c12 [Compound 10, apigenin]
- Effect on DOX toxicity in Lucena 1 [9]: did not cause any effect in DOX toxicity

Reference: paper PMC5403950, “Mechanism Underlying the Reversal of Drug Resistance in P-Glycoprotein-Expressing Leukemia Cells by Pinoresinol and the Study of a Derivative” (Frontiers in Pharmacology, 2017)
